Assays:
[1] = molecular target: T1, EGFR-TK (Homo sapiens, UniProt P00533); test: Inhibition Test on EGFR-TK (ELISA, PGT substrate); format: biochemical; conditions: 20 min at room temperature, read-out: Inhibition Activity (EC50) on EGFR-TK phosphorylation
T1 construct: EGFR-TK: intracellular epidermal growth factor receptor phosphorylase
Experimental: Inhibition Test on EGFR-TK
1. 2 mg/ml of PGT was diluted with PBS to 0.2 mg/ml. The resulting solution was added into elisa plate by 50 μl per well. The plate was placed in a refrigerator at 4° C. and coated overnight.
2. The coating solution was discarded to stop coating. The plate was washed three times with PBS, and then beaten to dryness.
3. The elisa plate was placed in a refrigerator at 4° C., drained out and stood for 2h.
4. The mother liquid of aqueous solution of each compound was diluted with double distilled water to four folds, i.e. a desirable concentration. Then, the compound was diluted and added in the corresponding elisa well by 25 μl/well.
5. […] of ATP solution was diluted with double distilled water to 50 folds and then sufficiently mixed. The resulting solution was separately added in each elisa well by 25 μl per well (except for the negative control).
6. EGFR kinase was diluted with 2×TKB to 800 folds. The solution was added in elisa well with 50 μl per well. Then, the enzyme reaction began. The elisa plate was immediately placed on a micro-oscillator and shaked to react for 20 min at the room temperature.
7. 2% of SDS was added in the elisa well to stop the reaction by adding 100 μl of SDS into each well. The solution was sufficiently mixed on the micro-oscillator to sufficiently mix for about 5 min.
8. The reaction solution was sucked out. The plate was washed four times with PBST. After the plate was beaten to dryness, 0.25 μg/ml of mice anti-phosphorylation tyrosine-HRP antibody which was diluted with blocking solution (3% solution of BSA in PBST) was added in the plate by 100 μl per well. The mixture was reacted for 30 min at the room temperature.
9. The antibody reaction solution was sucked out. The plate was washed four times with PBST. After the plate was beated to dryness, TMB peroxidase substrate was added to the plate by 100 μl/well. The mixture reacted in the dark for 15 min at the room temperature.
10. 100 μl of 2N H2SO4 was added in the plate to stop the chromogenic reaction. After the bubbles were cleansed, OD values were determined in ELIASA at 450 nm.
11. Formula for calculating inhibition percentage: […]

[2] = tested on: MDA-MB-453 cells; test: MDA-MB-453 Cell Growth Inhibition Test (SRB Assay); format: cell-based; conditions: Homo sapiens, 72 h incubation
Experimental: MDA-MB-453 Cell Growth Inhibition Test (SRB Assay)
Cell strains: MDA-MB-453 (human breast cancer cell strains);
SRB: 0.4% (w/v) working solution was formulated with 1% glacial acetic acid, reserved at 4° C.; antitumor compounds; DMSO
Culture medium: 90% L15+10% FBS;
(§1) 1. A plate (10 cm) of cells in logarithmic growth phase normally cultured was collected;
(§2) 2. The culture solution was sucked out. The plate was washed with 5 mL of PBS 1-2 times;
(§3) 3. 1.5 mL of 0.25% pancreatin was added to the plate to infiltrate the cells;
(§4) 4. The pancreatin was sucked out. The culture plate was placed in an incubator. Digestion was carried out for about 3 min at 37° C.;
(§5) 5. 4 mL of complete culture solution was added to the culture plate to stop the digestion. The cells were carefully scoured with micropipette (1 ml) to give a uniform single cell suspension. The suspension was implanted into a 96-well cell culture plate by 7000 cells/100 μl per well. The culture plate was incubated overnight under 5% CO2 at 37° C. In day 2, 100 μl of culture solution comprising a compound was added in each well, and further incubated for 72 h under 5% CO2 at 37° C.;
(§6) 6. The culture solution was sucked out. 100 uL of TCA fixed cells which were diluted to 10% were added to each well. The plate was kept in a refrigerator for 1 h at 4° C.
7. TCA stationary liquid was sucked out. […]
13. OD values were determined at […]. […]

[3] = tested on: NCI-H1650 cells; test: NCI-H1650 Cell Growth Inhibition Test (SRB Assay); format: cell-based; conditions: Homo sapiens, 72 h incubation
Experimental: NCI-H1650 Cell Growth Inhibition Test (SRB Assay)
1. Cell strains: NCI-H1650 (human non-small cell lung cancer cell strains);
2. SRB, 0.4% (w/v) working solution was formulated with 1% glacial acetic acid and reserved at 4° C.; antitumor compounds; DMSO
as §1, §2, §3, §4
as §5, with “The suspensin” for “The suspension”, “by 6000” for “by 7000”
as §6
7. TCA stationary liquid was sucked out. Each well was washed with 150 μL of ddH2O five times;
8. After the stationary liquid was cleansed, the plate was dried in the air at the room temperature;
9. 60 μL of SRB staining solution was added in each well. The well was stained for 15 min at the room temperature;
10. The SRB staining solution was sucked out. Each well was washed with 150 μL of 1% glacial acetic acid five times;
11. After the SRB staining solution was cleansed, the plate was dried in the air at the room temperature;
12. 100 μL of 10 mM Tris was added in each well, the plate was vibrated to dissolve out SRB;
13. OD values were determined at 570 nM.
(§7) 1. Calculation of Relative Inhibition Ratio The inhibition ratio of a compound on cell growth=(PC−n)/(PC−NC)×100%
(§8) IC50: Concentration of a compound where inhibition ratio was 50%. IC50 values were fitted with Origin7.5.

[4] = tested on: NCI-H358 cells; test: NCI-H358 Cell Growth Inhibition Test (MTT Assay); format: cell-based; conditions: Homo sapiens, 72 h incubation
Experimental: NCI-H358 Cell Growth Inhibition Test (MTT Assay)
Cell strains: NCI-H358 (human non-small cell lung cancer cell strains);
as §1
2. The culture solution was sucked out. The plate was washed with 5 ml of PBS 1-2 times;
3. PBS was sucked out. 1.5 ml of 0.25% pancreatin was added to infiltrate the cells for 1 min;
4. The culture plate was placed in an incubator. Digestion was carried out for about 5 min at 37° C.;
5. 3 ml of complete culture solution was added to the culture plate to stop the digestion. Tthe cells were carefully scoured with micropipette (1 ml) to give a uniform cell suspension. The suspension was implanted into a 96-well cell culture plate by 10000 cells/100 […] per well. The culture plate was incubated overnight under 5% CO2 at 37° C. In day 2, 100 μA of culture solution comprising a compound was added in each well, and further incubated for 72 h under 5% CO2 at 37° C.
6. The culture solution was sucked out;
7. 100 μA of serum-free culture solution containing 0.5 mg/ml MTT was added in each well, and incubated for 3 h;
8. The culture solution was carefully sucked out;
9. 100 μA of DMSO was added in each well and vibrated to dissolve;
10. OD values were determined at 490 nM.
as §7, §8

T1 sequence (P00533 669-1210 limits assumed): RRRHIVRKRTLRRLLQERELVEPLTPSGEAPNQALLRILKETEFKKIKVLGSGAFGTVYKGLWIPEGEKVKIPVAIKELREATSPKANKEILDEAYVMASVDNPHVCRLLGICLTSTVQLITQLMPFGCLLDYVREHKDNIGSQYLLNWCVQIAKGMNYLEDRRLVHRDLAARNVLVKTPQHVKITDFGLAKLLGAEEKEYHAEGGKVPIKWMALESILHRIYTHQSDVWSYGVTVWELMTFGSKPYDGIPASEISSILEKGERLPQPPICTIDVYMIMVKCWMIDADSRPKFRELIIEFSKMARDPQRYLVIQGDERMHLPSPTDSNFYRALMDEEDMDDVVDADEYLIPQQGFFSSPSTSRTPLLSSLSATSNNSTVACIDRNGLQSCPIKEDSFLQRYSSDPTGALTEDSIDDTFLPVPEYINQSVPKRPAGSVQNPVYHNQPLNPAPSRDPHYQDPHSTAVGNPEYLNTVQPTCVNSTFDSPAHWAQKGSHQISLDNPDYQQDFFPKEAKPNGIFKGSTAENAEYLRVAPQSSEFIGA

SMILES	EC50 [1] [nM]	IC50 [2] [nM]	IC50 [3] [nM]	IC50 [4] [nM]
C#Cc1cccc(Nc2c(C#N)cnc3cc(OC4CCOC4)c(NC(=O)/C=C/CN(C)C)cc23)c1 (centres unmarked) [Example 5, (E)-N-(3-CYANO-4-(3-ETHYNYLPHENYLAMINO)-7-(TETRAHYDROFURAN-3-YL-OXY)QUINOLIN-6-YL)-4-(DIMETHYLAMINO)-BUT-2-ENAMIDE]	44	505	–	–
CN(C)C/C=C/C(=O)Nc1cc2c(Nc3ccc(OCc4cccc(F)c4)c(Cl)c3)c(C#N)cnc2cc1OC1CCOC1 (centres unmarked) [Example 9, (E)-N-(4-(4-(3-FLUOROBENZYLOXY)-3-CHLOROPHENYLAMINO)-3-CYANO-7-(TETRAHYDROFURAN-3-YL-OXY)QUINOLIN-6-YL)-4-(DIMETHYLAMINO)-BUT-2-ENAMIDE]	135	–	636	–
CN(C)C/C=C/C(=O)Nc1cc2c(Nc3ccc(OCc4ccccn4)c(Cl)c3)c(C#N)cnc2cc1O[C@H]1CCOC1 [Example 138, (S,E)-N-(4-(3-CHLORO-4-(PYRIDIN-2-YL-METHOXY)PHENYLAMINO)-3-CYANO-7-(TETRAHYDROFURAN-3-YL-OXY)QUINOLIN-6-YL)-4-(DIMETHYLAMINO)-BUT-2-ENAMIDE]	110	–	1100	54
CN(C)C/C=C/C(=O)Nc1cc2c(Nc3ccc(OCc4ccccn4)c(Cl)c3)c(C#N)cnc2cc1O[C@@H]1CCOC1 [Example 139, (R,E)-N-(4-(3-CHLORO-4-(PYRIDIN-2-YL-METHOXY)PHENYLAMINO)-3-CYANO-7-(TETRAHYDROFURAN-3-YL-OXY)QUINOLIN-6-YL)-4-(DIMETHYLAMINO)-BUT-2-ENAMIDE]	–	–	1130	–
CC(C)(C)NC/C=C/C(=O)Nc1cc2c(Nc3ccc(OCc4ccccn4)c(Cl)c3)c(C#N)cnc2cc1O[C@H]1CCOC1 [Example 153, (S,E)-N-(4-(3-CHLORO-4-(PYRIDIN-2-YL-METHOXY)PHENYLAMINO)-3-CYANO-7-(TETRAHYDROFURAN-3-YL-OXY)QUINOLIN-6-YL)-4-(TERT-BUTYLAMINO)-BUT-2-ENAMIDE]	–	–	–	78

Other lines, results leading:

EC50 [1] [nM]	IC50 [2] [nM]	IC50 [3] [nM]	IC50 [4] [nM]	SMILES
42	–	–	–	CN(C)C/C=C/C(=O)Nc1cc2c(Nc3ccc(F)c(Cl)c3)c(C#N)cnc2cc1OC1CCOC1 (centres unmarked) [Example 4, (E)-N-(4-(3-CHLORO-4-FLUOROPHENYLAMINO)-3-CYANO-7-(TETRAHYDROFURAN-3-YL-OXY)QUINOLIN-6-YL)-4-(DIMETHYLAMINO)-BUT-2-ENAMIDE]
154	–	–	–	CN(C)C/C=C/C(=O)Nc1cc2c(Nc3ccc(OCc4ccccn4)c(Cl)c3)c(C#N)cnc2cc1OC1CCOC1 (centres unmarked) [Example 21, (E)-N-(4-(3-CHLORO-4-(PYRIDIN-2-YL-METHOXY)PHENYLAMINO)-3-CYANO-7-(TETRAHYDROFURAN-3-YL-OXY)QUINOLIN-6-YL)-4-(DIMETHYLAMINO)-BUT-2-ENAMIDE]

— US9187458B2, “Cyanoquinoline derivatives” (Tianjin Hemay Bio-Tech Co., LTD., priority 2010, dated 2015)
